Legend:
BEAS-2B cells = assay: Toxicity: compound concentration needed to induce greater than 50 percent of cell loss; format: cell-based, human; settings: 18 hours incubation
How it was run: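 Reported value is the concentration giving greater than 50 percent cell loss, grouped into bins (≥25 μM; between 1 and 25 μM; ≤1 μM as "+++"). Measured by high-content imaging of DAPI-stained BEAS-2B TFEB-EGFP cells fixed after 18 h compound exposure.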

TFEB = assay: High content screen measuring TFEB nuclear accumulation (TFEB nuclear/cytosol ratio) in BEAS-2B cells stably expressing TFEB-EGFP; format: cell-based, human; settings: 18 hours incubation
How it was run: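 Readout: lowest compound concentration giving a 25% rise in nuclear/cytosol TFEB-GFP ratio, from DAPI-masked nuclear and mask-expanded cytosolic signals. Cells (BEAS-2B, TFEB-EGFP stable, ~2300–2500/well) rested 8 hours, then treated 18 hours with compound serial dilutions in 2% FBS medium before PFA fixation and DAPI staining.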

SMILES	toxicity (compound concentration needed to induce greater than 50 percent of cell loss) (BEAS-2B cells)	efficacy (minimal compound concentration needed to increase TFEB nuclear/cytosol ratio by 25%) (TFEB)
c1cnc2cc(-c3ccncc3)nc(Nc3ccc4[nH]c(C5CC5)cc4c3)c2c1 [Compound 244]	+ (cell loss of greater than 50 percent at a concentration that equals or is greater than 25 μM was represented as)	+++ (“+++” equals ≤1 μM)
Fc1cccc(Nc2nc(-c3ccncc3)cc3ncccc23)c1 [Compound 245]	+ (cell loss of greater than 50 percent at a concentration that equals or is greater than 25 μM was represented as)	+++ (“+++” equals ≤1 μM)
Fc1cc(Nc2nc(-c3ccncc3)cc3ncccc23)cc2sc(C3CC3)nc12 [Compound 246]	+ (cell loss of greater than 50 percent at a concentration that equals or is greater than 25 μM was represented as)	+++ (“+++” equals ≤1 μM)
c1cncc(-c2cc3ncccc3c(Nc3ccc4nc(C5CC5)sc4c3)n2)c1 [Compound 247]	+ (cell loss of greater than 50 percent at a concentration that equals or is greater than 25 μM was represented as)	++ (“++” equals between ≤25 μM and >1 μM)
c1ccc(-c2cc3ncccc3c(Nc3ccc4nc(C5CC5)sc4c3)n2)nc1 [Compound 248]	+ (cell loss of greater than 50 percent at a concentration that equals or is greater than 25 μM was represented as)	++ (“++” equals between ≤25 μM and >1 μM)
Fc1c(-c2ccncc2)nc(Nc2ccc3nc(C4CC4)sc3c2)c2cccnc12 [Compound 332]	+ (cell loss of greater than 50 percent at a concentration that equals or is greater than 25 μM was represented as)	+++ (“+++” equals ≤1 μM)
Cc1c(-c2ccncc2)nc(Nc2ccc3nc(C4CC4)sc3c2)c2cccnc12 [Compound 333]	+ (cell loss of greater than 50 percent at a concentration that equals or is greater than 25 μM was represented as)	+++ (“+++” equals ≤1 μM)
COc1ccc2nc(-c3ccncc3)nc(Nc3ccc4nc(C(C)C)sc4c3)c2c1 [Compound 352]	+ (cell loss of greater than 50 percent at a concentration that equals or is greater than 25 μM was represented as)	++ (“++” equals between ≤25 μM and >1 μM)
COc1ccc2nc(-c3ccncc3)nc(Nc3ccc4nc(C(C)C)sc4c3)c2c1 [Compound 353]	+ (cell loss of greater than 50 percent at a concentration that equals or is greater than 25 μM was represented as)	++ (“++” equals between ≤25 μM and >1 μM)
CC(C)c1nc2ccc(Nc3nc(-c4ccncc4)nc4ccc(F)cc34)cc2s1 [Compound 354]	+ (cell loss of greater than 50 percent at a concentration that equals or is greater than 25 μM was represented as)	+ (“+” equals >25 μM)
CC(C)c1nc2ccc(Nc3nc(-c4ccncc4)nc4cc(F)ccc34)cc2s1 [Compound 355]	+ (cell loss of greater than 50 percent at a concentration that equals or is greater than 25 μM was represented as)	++ (“++” equals between ≤25 μM and >1 μM)
CCc1nc2ccc(Nc3nc(-c4ccncc4)nc4ncccc34)cc2o1 [Compound 356]	+ (cell loss of greater than 50 percent at a concentration that equals or is greater than 25 μM was represented as)	+++ (“+++” equals ≤1 μM)
FC(F)(F)c1nc2ccc(Nc3nc(-c4ccncc4)nc4ncccc34)cc2o1 [Compound 358]	+ (cell loss of greater than 50 percent at a concentration that equals or is greater than 25 μM was represented as)	++ (“++” equals between ≤25 μM and >1 μM)
CCCCc1nc2ccc(Nc3nc(-c4ccncc4)nc4ccccc34)cc2o1 [Compound 359]	+ (cell loss of greater than 50 percent at a concentration that equals or is greater than 25 μM was represented as)	+ (“+” equals >25 μM)
CCc1nc2ccc(Nc3nc(-c4ccncc4)nc4ccccc34)cc2o1 [Compound 360]	+ (cell loss of greater than 50 percent at a concentration that equals or is greater than 25 μM was represented as)	+ (“+” equals >25 μM)
CCc1nc2ccc(Nc3nc(-c4ccncc4)nc4cccc(OC)c34)cc2s1 [Compound 361]	+ (cell loss of greater than 50 percent at a concentration that equals or is greater than 25 μM was represented as)	++ (“++” equals between ≤25 μM and >1 μM)
CCc1nc2ccc(Nc3nc(-c4ccncc4)nc4c(OC)cccc34)cc2s1 [Compound 362]	+ (cell loss of greater than 50 percent at a concentration that equals or is greater than 25 μM was represented as)	+ (“+” equals >25 μM)
CCCc1nc2ccc(Nc3nc(-c4ccncc4)nc4ncccc34)cc2o1 [Compound 363]	+ (cell loss of greater than 50 percent at a concentration that equals or is greater than 25 μM was represented as)	+++ (“+++” equals ≤1 μM)
COc1ccc2nc(-c3ccncc3)nc(Nc3ccc4nc(C(C)C)sc4c3)c2c1 [Compound 364]	+ (cell loss of greater than 50 percent at a concentration that equals or is greater than 25 μM was represented as)	+ (“+” equals >25 μM)
CCCCc1nc2ccc(Nc3nc(-c4ccncc4)nc4ncccc34)cc2o1 [Compound 365]	+ (cell loss of greater than 50 percent at a concentration that equals or is greater than 25 μM was represented as)	+++ (“+++” equals ≤1 μM)
CCc1nc2ccc(Nc3nc(-c4ccncc4)nc4cc(F)ccc34)cc2s1 [Compound 366]	+ (cell loss of greater than 50 percent at a concentration that equals or is greater than 25 μM was represented as)	+ (“+” equals >25 μM)
CC(C)c1nc2ccc(Nc3nc(-c4ccncc4)nc4c(F)cccc34)cc2s1 [Compound 367]	+ (cell loss of greater than 50 percent at a concentration that equals or is greater than 25 μM was represented as)	++ (“++” equals between ≤25 μM and >1 μM)

Source: patent publication US12286442B2, “Methods and materials for increasing transcription factor eb polypeptide levels” (University of Pittsburgh—Of the Commonwealth System of …, priority 2019, dated 2025)
